Data on 30 compounds can be found in ChEMBL document CHEMBL5029157, “Identification of unprecedented ATP-competitive choline kinase inhibitors” (Bioorg Med Chem Lett, 2021).

Values after ≈ are worked out from the molar mass of the structure shown.

The nature of data set [1]: Solubility of compound at pH 7. The class given is physicochemical. The following applies: buffer.
Data set [2] in a line: Metabolic stability in human liver microsomes assessed as intrinsic clearance. In kind it is ADME, Microsome. The following applies: read-out: CLH.
Data set [3] in a line: Metabolic stability in rat hepatocyte assessed as intrinsic clearance. The class given is ADME, tissue-based. The settings on record: hepatocytes, read-out: CLH.
Data set [4] addresses Choline/ethanolamine kinase (Homo sapiens, UniProt Q9Y259).

Sequence of Choline/ethanolamine kinase (Q9Y259 whole entry): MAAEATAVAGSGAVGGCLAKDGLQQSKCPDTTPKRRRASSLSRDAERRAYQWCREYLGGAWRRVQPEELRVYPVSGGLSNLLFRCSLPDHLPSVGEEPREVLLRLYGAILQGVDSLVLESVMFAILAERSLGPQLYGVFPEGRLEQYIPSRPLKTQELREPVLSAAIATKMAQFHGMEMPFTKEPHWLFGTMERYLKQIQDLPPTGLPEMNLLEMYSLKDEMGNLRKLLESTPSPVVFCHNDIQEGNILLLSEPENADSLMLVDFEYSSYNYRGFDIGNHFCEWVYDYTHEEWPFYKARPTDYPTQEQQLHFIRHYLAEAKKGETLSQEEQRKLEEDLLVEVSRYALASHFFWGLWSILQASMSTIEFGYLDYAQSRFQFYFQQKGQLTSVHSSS

`COc1ccc2nc(NC(=O)[C@H]3CC[C@@H](n4cnc5c(N)nc(Cl)nc54)CC3)sc2c1`: the solubility (as a rule, how much of the substance goes into solution per volume) in data set [1] came out at 1 µM (≈ 0.458 µg/mL).

In data set [1], `CN1CCc2nc(NC(=O)[C@H]3CC[C@@H](n4cnc5c(N)nc(F)nc54)CC3)sc2C1` yielded a solubility of 105 µM (≈ 45.2 µg/mL). The CLint scaled in data set [2] came to 13 mL/min/kg; in data set [3], 22 mL/min/kg.

With `Nc1nc(Cl)nc2c1ncn2[C@H]1CC[C@@H](C(=O)Nc2nc3ccc(O)cc3s2)CC1`, the concentration in solution in data set [1] (solubility) was 3 µM (≈ 1.33 µg/mL).

The compound `Nc1nc(Cl)nc2c1ncn2[C@H]1CC[C@@H](C(=O)Nc2nc3c(F)cc(F)cc3s2)CC1` yielded a solubility in data set [1] of 1 µM (≈ 0.464 µg/mL).

Compound `CC(C)N1CCc2nc(NC(=O)[C@H]3CC[C@@H](n4cnc5c(N)nc(Cl)nc54)CC3)sc2C1` returned a solubility in data set [1] of 73 µM (≈ 34.7 µg/mL).

`Nc1nc(Cl)nc2c1ncn2[C@H]1CC[C@@H](C(=O)Nc2nc3c(s2)COCC3)CC1` had a solubility in data set [1] of 4 µM (≈ 1.74 µg/mL).

Consider `NC(=O)Cc1ccc2nc(NC(=O)[C@H]3CC[C@@H](n4cnc5c(N)nc(Cl)nc54)CC3)sc2c1`, for which, in data set [1], the solubility turned out to be 2 µM (≈ 0.97 µg/mL).

Regarding `NC(=O)c1ccc2nc(NC(=O)[C@H]3CC[C@@H](n4cnc5c(N)nc(Cl)nc54)CC3)sc2c1`, in data set [1], the concentration in solution (solubility) was 3 µM (≈ 1.41 µg/mL).

`COc1cccc(NC(=O)[C@H]2CC[C@@H](n3cnc4c(N)nc(-c5ccc6cn[nH]c6c5)nc43)CC2)c1`: the IC50 (usually the concentration at which inhibition is half-maximal) in data set [4] is over 10 µM.

Compound `COc1cccc(NC(=O)[C@H]2CC[C@@H](n3cnc4c(N)nc(N5CCN(C)CC5)nc43)CC2)c1` displayed an IC50 in data set [4] of over 10 µM.

With `Cc1csc(NC(=O)[C@H]2CC[C@@H](n3cnc4c(N)nc(Cl)nc43)CC2)n1`, the concentration in solution in data set [1] (solubility) was 15 µM (≈ 5.88 µg/mL). In addition, the CLint scaled in data set [2] stood at 12 mL/min/kg; in data set [3], 34 mL/min/kg.

As to `Nc1nc(Cl)nc2c1ncn2[C@H]1CC[C@@H](C(=O)Nc2nc3ccc(F)cc3s2)CC1`, the concentration in solution in data set [1] (solubility) was 3 µM (≈ 1.34 µg/mL).

For the compound `Cc1cnc(NC(=O)[C@H]2CC[C@@H](n3cnc4c(N)nc(Cl)nc43)CC2)s1`, in data set [1], the solubility amounted to 5 µM (≈ 1.96 µg/mL).

With `COc1cccc(NC(=O)[C@H]2CC[C@@H](n3cnc4c(N)nc(-c5ccc6[nH]ncc6c5)nc43)CC2)c1`, the IC50 in data set [4] was over 10 µM.

Consider `Nc1nc(Cl)nc2c1ncn2[C@H]1CC[C@@H](C(=O)Nc2nc3c(O)cccc3s2)CC1`, for which the solubility in data set [1] worked out at 4 µM (≈ 1.78 µg/mL).

In the case of `Nc1nc(Cl)nc2c1ncn2[C@H]1CC[C@@H](C(=O)Nc2nc3c(s2)CS(=O)(=O)CC3)CC1`, in data set [1], the solubility is 37 µM (≈ 17.8 µg/mL).

`Nc1nc(Cl)nc2c1ncn2[C@H]1CC[C@@H](C(=O)Nc2nc3c(s2)CNCC3)CC1` had a solubility in data set [1] of 153 µM (≈ 66.2 µg/mL).

As for `Nc1ncnc2c1ncn2[C@H]1CC[C@@H](C(=O)Nc2ccc(S(=O)(=O)C(F)(F)F)cc2)CC1`, the IC50 in data set [4] was over 10 µM.

As to `Nc1nc(Cl)nc2c1ncn2[C@H]1CC[C@@H](C(=O)Nc2nc(C(F)(F)F)cs2)CC1`, in data set [1], the concentration in solution (solubility) was 9 µM (≈ 4.01 µg/mL).

Consider `NC(=O)Cc1csc(NC(=O)[C@H]2CC[C@@H](n3cnc4c(N)nc(Cl)nc43)CC2)n1`, for which the solubility in data set [1] stood at 6 µM (≈ 2.61 µg/mL).

As for `COc1cccc2sc(NC(=O)[C@H]3CC[C@@H](n4cnc5c(N)nc(Cl)nc54)CC3)nc12`, the concentration in solution in data set [1] (solubility) was 2 µM (≈ 0.916 µg/mL).

In data set [1], `CN1CCc2nc(NC(=O)[C@H]3CC[C@@H](n4cnc5c(N)nc(Cl)nc54)CC3)sc2C1` had a solubility of 171 µM (≈ 76.4 µg/mL). The CLint scaled is 33 mL/min/kg in data set [2] and 49 mL/min/kg in data set [3].

In data set [4], `CS(=O)(=O)c1ccc(NC(=O)[C@H]2CC[C@@H](n3cnc4c(N)ncnc43)CC2)cc1` gave an IC50 of over 10 µM.

In data set [1], `Cc1csc(NC(=O)[C@H]2CC[C@@H](n3cnc4c(N)nc(F)nc43)CC2)n1` had a solubility of 2 µM (≈ 0.751 µg/mL). Further, the results for the CLint scaled in data set [2] and in data set [3] were 12 mL/min/kg and 34 mL/min/kg, respectively.

For `Cl.Nc1nc(Cl)nc2c1ncn2[C@H]1CC[C@@H](C(=O)Nc2nc3c(s2)CN(C2CC2)CC3)CC1`, the concentration in solution in data set [1] (solubility) was 13 µM.

In the case of `Nc1ncnc2c1ncn2[C@H]1CC[C@@H](C(=O)Nc2cccc(S(=O)(=O)C(F)(F)F)c2)CC1`, the IC50 in data set [4] is over 10 µM.

As for `CC1(C)Cc2nc(NC(=O)[C@H]3CC[C@@H](n4cnc5c(N)nc(F)nc54)CC3)sc2C(C)(C)N1`, the concentration in solution in data set [1] (solubility) was 200 µM (≈ 94.5 µg/mL). The CLint scaled in data set [2] stood at 56 mL/min/kg; in data set [3], 84 mL/min/kg.

`NC(=O)Cc1cnc(NC(=O)[C@H]2CC[C@@H](n3cnc4c(N)nc(Cl)nc43)CC2)s1` had a solubility in data set [1] of 97 µM (≈ 42.2 µg/mL).

For `CC1(C)Cc2nc(NC(=O)[C@H]3CC[C@@H](n4cnc5c(N)nc(Cl)nc54)CC3)sc2C(C)(C)N1`, the concentration in solution in data set [1] (solubility) came to 119 µM (≈ 58.2 µg/mL). Also, the CLint scaled was determined as 78 mL/min/kg in data set [2] and 97 mL/min/kg in data set [3].

Turning to `Nc1nc(Cl)nc2c1ncn2[C@H]1CC[C@@H](C(=O)Nc2nc(-c3ccccc3)cs2)CC1`, in data set [1], the solubility was found to be 5 µM (≈ 2.27 µg/mL).
